The values below come from ChEMBL document CHEMBL3608280, “Tetramic Acids and Pyridone Alkaloids from the Endolichenic Fungus Tolypocladium cylindrosporum” (J Nat Prod, 2015).

Each structure is given as a SMILES string.

One assay has as its system MDA-MB-231. In words: Cytotoxicity against human MDA-MB-231 cells assessed as growth inhibition after 48 hrs by MTT assay. It counts as functional, cell-based. Conditions: MDA-MB-231, 48 h.
Assay [1] concerns A549. Put plainly: Cytotoxicity against human A549 cells assessed as growth inhibition after 48 hrs by MTT assay. It counts as functional, cell-based. The following applies: A549, 48 h.
Another assay deals with A2780. In words: Cytotoxicity against human A2780 cells assessed as growth inhibition after 48 hrs by MTT assay. Conditions: A2780, 48 h. In kind it is functional, cell-based.
A further assay has as its system K562. Put plainly: Cytotoxicity against human K562 cells assessed as growth inhibition after 48 hrs by MTT assay. Conditions: K562, 48 h. In kind it is functional, cell-based.
Assay [2] concerns A549. In words: Cell cycle arrest in human A549 cells assessed as accumulation at G0/G1 phase after 24 hrs by propidium iodide staining-based flow cytometric analysis. In kind it is functional.
The subject of assay [3] is A549. In words: Cell cycle arrest in human A549 cells assessed as accumulation at G1 phase at 1 uM after 24 hrs by propidium iodide staining-based flow cytometric analysis (reference value: 52.73%). In kind it is functional.
Assay [4] deals with A549. In words: Cell cycle arrest in human A549 cells assessed as accumulation at S phase at 1 uM after 24 hrs by propidium iodide staining-based flow cytometric analysis (reference value: 36.98%). In kind it is functional.
Assay [5] concerns A549. Put plainly: Cell cycle arrest in human A549 cells assessed as accumulation at G2/M phase at 1 uM after 24 hrs by propidium iodide staining-based flow cytometric analysis (reference value: 10.29%). In kind it is functional.
In assay [6] the test system is A549. Put plainly: Cell cycle arrest in human A549 cells assessed as accumulation at G1 phase at 2 uM after 24 hrs by propidium iodide staining-based flow cytometric analysis (reference value: 52.73%). It counts as functional.
Assay [7] relates to A549. In words: Cell cycle arrest in human A549 cells assessed as accumulation at S phase at 2 uM after 24 hrs by propidium iodide staining-based flow cytometric analysis (reference value: 36.98%). In kind it is functional.
Assay [8] has as its system A549. Put plainly: Cell cycle arrest in human A549 cells assessed as accumulation at G2/M phase at 2 uM after 24 hrs by propidium iodide staining-based flow cytometric analysis (reference value: 10.29%). In kind it is functional.
Assay [9] has as its system A549. In words: Induction of apoptosis in human A549 cells after 48 hrs by annexin V-FITC/propidium iodide staining-based flow cytometric analysis. It counts as functional, cell-based.
The test system of assay [10] is A549. Put plainly: Induction of apoptosis in human A549 cells assessed as early apoptotic cells at 1 uM after 48 hrs by annexin V-FITC/propidium iodide staining-based flow cytometric analysis (reference value: 0.86%). In kind it is functional.
In assay [11] the test system is A549. Put plainly: Induction of apoptosis in human A549 cells assessed as late apoptotic cells at 1 uM after 48 hrs by annexin V-FITC/propidium iodide staining-based flow cytometric analysis (reference value: 3.94%). It counts as functional.
For assay [12], the system named is A549. In words: Induction of apoptosis in human A549 cells assessed as dead cells at 1 uM after 48 hrs by annexin V-FITC/propidium iodide staining-based flow cytometric analysis (reference value: 0.43%). It counts as functional.
The test system of assay [13] is A549. In words: Induction of apoptosis in human A549 cells assessed as early apoptotic cells at 2 uM after 48 hrs by annexin V-FITC/propidium iodide staining-based flow cytometric analysis (reference value: 0.86%). In kind it is functional.
Assay [14] relates to A549. Put plainly: Induction of apoptosis in human A549 cells assessed as late apoptotic cells at 2 uM after 48 hrs by annexin V-FITC/propidium iodide staining-based flow cytometric analysis (reference value: 3.94%). It counts as functional.
The test system of assay [15] is A549. Put plainly: Induction of apoptosis in human A549 cells assessed as dead cells at 2 uM after 48 hrs by annexin V-FITC/propidium iodide staining-based flow cytometric analysis (reference value: 0.43%). It counts as functional.

In the case of `C/C=C\C[C@H](C)C[C@H](C)/C(O)=C1/C(=O)N/C(=C\c2ccc(O)cc2)C1=O`, the concentration for half-maximal inhibition (IC50) in the assay on MDA-MB-231, with A549 [1], with A2780 and in the assay on K562 was over 40 µM in each case.
Consider `COc1cccc2c1C(=O)c1c(O)c3c(c(O)c1C2=O)C[C@@](O)(C(=O)CO)C[C@@H]3O[C@H]1C[C@H](N)[C@H](O)[C@H](C)O1` [DOXORUBICIN], for which the figures for the IC50 with A549 [1], with A2780 and in the assay on K562 were 0.51 µM, 0.6 µM and 1.1 µM, respectively.
Take `CC1Oc2c(-c3ccc(O)cc3)c[nH]c(=O)c2[C@@H]2[C@@H](C)C[C@@H](C)C[C@@H]12` (stereo partly drawn): the IC50 in the assay with MDA-MB-231, with A549 [1], in the assay with A2780 and in the assay with K562 was over 40 µM each time.
In the case of `C=C[C@@H]1C[C@H](C)C[C@H](C)C1c1c(O)ccn(O)c1=O` (stereo partly drawn), the IC50 in the assay with MDA-MB-231 came to 1.63 µM; in the assay with A549 [1], 1.24 µM; with A2780, 1.36 µM; in the assay with K562, 1.83 µM. The Activity entry in the assay with A549 [2] is “Dose-dependent effect”; in the assay with A549 [3], 78.16%; with A549 [4] it was 17.49%; with A549 [5], 4.35%; in the assay with A549 [6] it was 82.63%; in the assay with A549 [7] it was 16.02%. Moreover, the Activity was 1.35% in the assay on A549 [8]; “Dose-dependent effect” with A549 [9]; 3% in the assay on A549 [10]; 21.94% in the assay with A549 [11]; 4.25% in the assay on A549 [12]; 1.06% in the assay with A549 [13]. For the same compound, the Activity turned out to be 28.3% in the assay on A549 [14] and 5.41% in the assay with A549 [15].
`C=C[C@@H]1C[C@H](C)C[C@H](C)C1c1c(O)cc[nH]c1=O` (stereo partly drawn): the IC50 with MDA-MB-231, with A549 [1], in the assay on A2780 and in the assay on K562 was over 40 µM throughout.
In the case of `CC(C)(O)[C@@H]1C[C@@H](O)[C@]2(C)[C@H](CC[C@@]3(C)[C@H]2CC[C@H]2Cc4c([nH]c5ccccc45)[C@@]23C)O1` [TERPENDOLE E], the IC50 was 39.2 µM in the assay on MDA-MB-231, 18.8 µM in the assay with A549 [1], 31.1 µM in the assay on A2780 and 38.7 µM in the assay on K562.
The like results for `C/C=C\C[C@@H](C)C[C@@H](C)/C(O)=C1/C(=O)N/C(=C\c2ccc(O)cc2)C1=O` were, in that order, over 40 µM, over 40 µM, over 40 µM and over 40 µM.
Turning to `Cc1cc(O)c2oc(=O)c(O)c(-c3ccc(O)cc3)c2c1`, the IC50 with MDA-MB-231, in the assay on A549 [1], in the assay with A2780 and with K562 was over 40 µM in each case.
Consider `C/C=C\C[C@H](C)C[C@H](C)/C(O)=C1/C(=O)N[C@H]([C@H](O)c2ccc(O)cc2)C1=O`, for which the IC50 in the assay with MDA-MB-231, with A549 [1], in the assay with A2780 and in the assay on K562 was over 40 µM in each case.
With `C/C=C\C[C@H](C)C[C@H](C)/C(O)=C1/C(=O)N[C@@H]([C@@H](O)c2ccc(O)cc2)C1=O`, the IC50 with MDA-MB-231, in the assay with A549 [1], in the assay on A2780 and with K562 was over 40 µM throughout.
